Here are results for 34 molecules from US20090099158A1, “TETRAHYDROISOQUINOLINE COMPOUNDS AS MODULATORS OF THE HISTAMINE H3 RECEPTOR” (priority 2007, published 2009).

T1 sequence (Q9Y5N1 whole entry): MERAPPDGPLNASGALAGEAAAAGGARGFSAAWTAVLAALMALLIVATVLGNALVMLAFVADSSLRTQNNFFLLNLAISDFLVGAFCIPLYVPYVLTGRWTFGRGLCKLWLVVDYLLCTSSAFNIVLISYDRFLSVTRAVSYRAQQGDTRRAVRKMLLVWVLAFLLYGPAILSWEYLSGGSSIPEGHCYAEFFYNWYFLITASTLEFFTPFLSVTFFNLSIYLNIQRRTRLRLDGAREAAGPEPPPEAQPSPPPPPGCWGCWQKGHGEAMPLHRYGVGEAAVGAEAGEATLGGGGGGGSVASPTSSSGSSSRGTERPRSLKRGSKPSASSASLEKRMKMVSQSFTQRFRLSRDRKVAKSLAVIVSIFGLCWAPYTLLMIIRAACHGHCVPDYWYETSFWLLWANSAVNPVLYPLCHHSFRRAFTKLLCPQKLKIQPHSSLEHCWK

The assay concerns the target T1, cloned human H3 receptors (Homo sapiens, UniProt Q9Y5N1).
T1 construct: expressed in transfected cells; host or cells: SK-N-MC cells
The experiment in a line: H3 Receptor Binding (Human). The settings on record: cloned human H3 receptors stably expressed in SK-N-MC cells; average of the results obtained. The method, then:
Binding of compounds to the cloned human H3 receptors, stably expressed in SK-N-MC cells, was performed as described by Barbier, A. J. et al. (Br. J. Pharmacol. 2004, 143(5), 649-661). Data for compounds tested in this assay are presented in Table 1 as an average of the results obtained.
For orientation: Ki means a measure of affinity in units of concentration, obtained from inhibition or displacement. Molecule `O=C(c1ccccc1F)N1CCc2cc(C(=O)N3CCC[C@H]3CN3CCCC3)ccc2C1` [Example 56, (S)-(2-Fluoro-phenyl)-[6-(2-Pyrrolidin-1-ylmethyl-pyrrolidine-1-carbonyl)-3,4-dihydro-1H-isoquinolin-2-yl]-methanone] gave a Ki of 23 nM.
With `O=C(c1ccc2c(c1)CCN(C(=O)c1ccccc1Cl)C2)N1CCN(C2CCC2)CC1` [Example 42, (2-Chloro-phenyl)-[6-(4-cyclobutyl-piperazine-1-carbonyl)-3,4-dihydro-1H-isoquinolin-2-yl]-methanone], the Ki was determined as 10 nM.
With `Cc1ccccc1C(=O)N1CCc2cc(C(=O)N3CCN(C4CCCCC4)CC3)ccc2C1` [Example 82, (4-Cyclohexyl-piperazin-1-yl)-[2-(2-methyl-benzoyl)-1,2,3,4-tetrahydro-isoquinolin-6-yl]-methanone], the affinity corresponds to a Ki of 55 nM.
`CC(C)N1CCc2cc(C(=O)N3CCN4CCCCC4C3)ccc2C1` (stereo not shown) [Example 175, (2-Isopropyl-1,2,3,4-tetrahydro-isoquinolin-6-yl)-(octahydro-pyrido[1,2-a]pyrazin-2-yl)-methanone] gave a Ki of 2 nM.
`O=C(c1ccc2c(c1)CCN(Cc1ccc(C(F)(F)F)cc1)C2)N1CCN(C2CCC2)CC1` [Example 14, (4-Cyclobutyl-piperazin-1-yl)-[2-(4-trifluoromethyl-benzyl)-1,2,3,4-tetrahydro-isoquinolin-6-yl]-methanone] showed a Ki of 20 nM.
`CC(C)(C)C(=O)N1CCc2cc(C(=O)N3CCN(C4CCCC4)CC3)ccc2C1` [Example 64, 1-[6-(4-Cyclopentyl-piperazine-1-carbonyl)-3,4-dihydro-1H-isoquinolin-2-yl]-2,2-dimethyl-propan-1-one]: the Ki is 100 nM.
In the case of `Cc1ccc(C(=O)N2CCc3cc(C(=O)N4CCN(C5CCC5)CC4)ccc3C2)cc1F` [Example 127, (4-Cyclobutyl-piperazin-1-yl)-[2-(3-fluoro-4-methyl-benzoyl)-1,2,3,4-tetrahydro-isoquinolin-6-yl]-methanone], the Ki was determined as 27 nM.
Regarding `CC(C)(C)c1ccc(C(=O)N2CCc3cc(C(=O)N4CCC[C@H]4CN4CCCC4)ccc3C2)cc1` [Example 49, (S)-(4-tert-Butyl-phenyl)-[6-(2-pyrrolidin-1-ylmethyl-pyrrolidine-1-carbonyl)-3,4-dihydro-1H-isoquinolin-2-yl]-methanone], the Ki was found to be 46 nM.
For the molecule `O=C(c1ccc2c(c1)CCN(C(=O)c1ccc([N+](=O)[O-])cc1)C2)N1CCN(C2CCC2)CC1` [Example 122, [6-(4-Cyclobutyl-piperazine-1-carbonyl)-3,4-dihydro-1H-isoquinolin-2-yl]-(4-nitro-phenyl)-methanone], the affinity, expressed as Ki, was 7 nM.
The result for `O=C(c1ccc2c(c1)CCN(Cc1ccc(Cl)cc1)C2)N1CCN(C2CC2)CC1` [Example 24, [2-(4-Chloro-benzyl)-1,2,3,4-tetrahydro-isoquinolin-6-yl]-(4-cyclopropyl-piperazin-1-yl)-methanone] reads 75 nM.
Molecule `CC(C)N1CCN(C(=O)c2ccc3c(c2)CCN(C(=O)c2ccc(Cl)cc2)C3)CC1` [Example 110, [2-(4-Chloro-benzoyl)-1,2,3,4-tetrahydro-isoquinolin-6-yl]-(4-isopropyl-piperazin-1-yl)-methanone] gave a Ki of 47 nM.
`O=C(c1ccc2c(c1)CCN(C(=O)c1ccc(F)c(Cl)c1)C2)N1CCN(C2CCC2)CC1` [Example 128, [2-(3-Chloro-4-fluoro-benzoyl)-1,2,3,4-tetrahydro-isoquinolin-6-yl]-(4-cyclobutyl-piperazin-1-yl)-methanone] displayed an inhibitory constant (Ki) of 19 nM.
Molecule `O=C(c1ccc2c(c1)CCN(Cc1ccccc1)C2)N1CCOCC1` [Example 13, (2-Benzyl-1,2,3,4-tetrahydro-isoquinolin-6-yl)-morpholin-4-yl-methanone] yielded a Ki of over 10000 nM.
In the case of `COc1ccc(C(=O)N2CCc3cc(C(=O)N4CCN(C(C)C)CC4)ccc3C2)cc1` [Example 108, (4-Isopropyl-piperazin-1-yl)-[2-(4-methoxy-benzoyl)-1,2,3,4-tetrahydro-isoquinolin-6-yl]-methanone], the Ki was found to be 28 nM.
Molecule `O=C(c1ccc2c(c1)CCN(C(=O)c1ccc(F)c(O)c1)C2)N1CCN(C2CCC2)CC1` [Example 124, (4-Cyclobutyl-piperazin-1-yl)-[2-(4-fluoro-3-hydroxy-benzoyl)-1,2,34-tetrahydro-isoquinolin-6-yl]-methanone] yielded a Ki of 24 nM.
In turn, `CC(C)N1CCCN(C(=O)c2ccc3c(c2)CCN(C(=O)OC(C)(C)C)C3)CC1` [Example 1, 6-(4-Isopropyl-[1,4]diazepane-1-carbonyl)-3,4-dihydro-1H-isoquinoline-2-carboxylic acid tert-butyl ester] returned a Ki of 8 nM.
`CN(C)C1CCN(C(=O)c2ccc3c(c2)CCN(C(=O)C2CCCCC2)C3)CC1` [Example 154, Cyclohexyl-[6-(4-dimethylamino-piperidine-1-carbonyl)-3,4-dihydro-1H-isoquinolin-2-yl]-methanone] returned a Ki of 441 nM.
`O=C(c1ccc2c(c1)CCN(C(=O)C1CCCO1)C2)N1CCCN(C2CCC2)CC1` (stereo not shown) [Example 138, [6-(4-Cyclobutyl-[1,4]diazepane-1-carbonyl)-3,4-dihydro-1H-isoquinolin-2-yl]-(tetrahydro-furan-2-yl)-methanone] gave a Ki of 1 nM.
The molecule `O=C(c1cccc(F)c1)N1CCc2cc(C(=O)N3CCC[C@H]3CN3CCCC3)ccc2C1` [Example 57, (S)-(3-Fluoro-phenyl)-[6-(2-pyrrolidin-1-ylmethyl-pyrrolidine-1-carbonyl)-3,4-dihydro-1H-isoquinolin-2-yl]-methanone] displayed a Ki of 14 nM.
The result for `O=C(c1ccc2c(c1)CCN(C(=O)C1CCCCC1)C2)N1CCC(N2CCCCC2)CC1` [Example 157, [6-([1,4′]Bipiperidinyl-1′-carbonyl)-3,4-dihydro-1H-isoquinolin-2-yl]-cyclohexyl-methanone] reads 110 nM; that for `Cc1ccc(C(=O)N2CCc3cc(C(=O)N4CCN(C(C)C)CC4)ccc3C2)cc1` [Example 109, (4-Isopropyl-piperazin-1-yl)-[2-(4-methyl-benzoyl)-1,2,3,4-tetrahydro-isoquinolin-6-yl]-methanone], 37 nM.
`COc1cccc(C(=O)N2CCc3cc(C(=O)N4CCC[C@H]4CN4CCCC4)ccc3C2)c1` [Example 59, (S)-(3-Methoxy-phenyl)-[6-(2-Pyrrolidin-1-ylmethyl-pyrrolidine-1-carbonyl)-3,4-dihydro-1H-isoquinolin-2-yl]-methanone] displayed a Ki of 12 nM.
Take `CC(C)(C)c1ccc(C(=O)N2CCc3cc(C(=O)N4CCN5CCCCC5C4)ccc3C2)cc1` (stereo not shown) [Example 98, [2-(4-tert-Butyl-benzoyl)-1,2,3,4-tetrahydro-isoquinolin-6-yl]-(octahydro-pyrido[1,2-a]pyrazin-2-yl)-methanone]: the Ki turned out to be 38 nM.
Consider `N#Cc1ccc(C(=O)N2CCc3cc(C(=O)N4CCN(C5CCCCC5)CC4)ccc3C2)cc1` [Example 81, 4-[6-(4-Cyclohexyl-piperazine-1-carbonyl)-3,4-dihydro-1H-isoquinoline-2-carbonyl]-benzonitrile], for which the Ki amounted to 65 nM.
The result for `O=C(c1ccc(F)cc1)N1CCc2cc(C(=O)N3CCN4CCCCC4C3)ccc2C1` (stereo not shown) [Example 88, [2-(4-Fluoro-benzoyl)-1,2,3,4-tetrahydro-isoquinolin-6-yl]-(octahydro-pyrido[1,2-a]pyrazin-2-yl)-methanone] reads 24 nM; that for `N#Cc1cccc(C(=O)N2CCc3cc(C(=O)N4CCN(C5CCCCC5)CC4)ccc3C2)c1` [Example 80], 70 nM; that for `N#Cc1cccc(C(=O)N2CCc3cc(C(=O)N4CCN5CCCCC5C4)ccc3C2)c1` (stereo not shown) [Example 94, 3-[6-(Octahydro-pyrido[1,2-a]pyrazine-2-carbonyl)-3,4-dihydro-1H-isoquinoline-2-carbonyl]-benzonitrile], 22 nM.
Consider `O=C(c1ccc2c(c1)CCNC2)N1CCCCC1` [Example 6, Piperidin-1-yl-(1,2,3,4-tetrahydro-isoquinolin-6-yl)-methanone], for which the Ki was 3000 nM.
The result for `O=C(c1cccc(Cl)c1)N1CCc2cc(C(=O)N3CCC[C@H]3CN3CCCC3)ccc2C1` [Example 51, (S)-(3-Chloro-phenyl)-[6-(2-pyrrolidin-1-ylmethyl-pyrrolidine-1-carbonyl)-3,4-dihydro-1H-isoquinolin-2-yl]-methanone] reads 14 nM; that for `CC(C)S(=O)(=O)N1CCc2cc(C(=O)N3CCN(C4CCC4)CC3)ccc2C1` [Example 102, (4-Cyclobutyl-piperazin-1-yl)-[2-(propane-2-sulfonyl)-1,2,3,4-tetrahydro-isoquinolin-6-yl]-methanone], 25 nM; that for `O=C(c1ccc2c(c1)CCN(C(=O)c1ccccc1F)C2)N1CCN2CCCCC2C1` (stereo not shown) [Example 86, [2-(2-Fluoro-benzoyl)-1,2,3,4-tetrahydro-isoquinolin-6-yl]-(octahydro-pyrido[1,2-a]pyrazin-2-yl)-methanone], 27 nM.
On to `O=C(c1cccc(F)c1)N1CCc2cc(C(=O)N3CCN4CCCCC4C3)ccc2C1` (stereo not shown) [Example 87, [2-(3-Fluoro-benzoyl)-1,2,3,4-tetrahydro-isoquinolin-6-yl]-(octahydro-pyrido[1,2-a]pyrazin-2-yl)-methanone], for which affinity was put at a Ki of 23 nM.
Molecule `CC(C)N1CCN(C(=O)c2ccc3c(c2)CCN(Cc2ccccc2)C3)CC1` [Example 21, (2-Benzyl-1,2,34-tetrahydro-isoquinolin-6-yl)-(4-isopropyl-piperazin-1-yl)-methanone] gave a Ki of 28 nM.
`O=C(c1ccc2c(c1)CCN(C(=O)c1ccccc1F)C2)N1CCN(C2CCCC2)CC1` [Example 66, (4-Cyclopentyl-piperazin-1-yl)-[2-(2-fluoro-benzoyl)-1,2,3,4-tetrahydro-isoquinolin-6-yl]-methanone]: the Ki was determined as 43 nM.
